Molecules are shown by their SMILES.

In publication PMC6454048, “Identification of Cbp1, a c-di-GMP Binding Chemoreceptor in Azorhizobium caulinodans ORS571 Involved in Chemotaxis and Nodulation of the Host Plant” (Frontiers in Microbiology, 2019) one finds Kd data, which are given here for one compound.

The target of the assay is T1, Cbp1 (c-di-GMP binding protein 1; PilZ domain containing chemoreceptor) (Azorhizobium caulinodans, UniProt A8II15).
T1 construct: gene AZC_3349; Cbp1 ORF with C-terminal 6×His tag, expressed in E. coli Top10
T1 sequence (A8II15 1-581): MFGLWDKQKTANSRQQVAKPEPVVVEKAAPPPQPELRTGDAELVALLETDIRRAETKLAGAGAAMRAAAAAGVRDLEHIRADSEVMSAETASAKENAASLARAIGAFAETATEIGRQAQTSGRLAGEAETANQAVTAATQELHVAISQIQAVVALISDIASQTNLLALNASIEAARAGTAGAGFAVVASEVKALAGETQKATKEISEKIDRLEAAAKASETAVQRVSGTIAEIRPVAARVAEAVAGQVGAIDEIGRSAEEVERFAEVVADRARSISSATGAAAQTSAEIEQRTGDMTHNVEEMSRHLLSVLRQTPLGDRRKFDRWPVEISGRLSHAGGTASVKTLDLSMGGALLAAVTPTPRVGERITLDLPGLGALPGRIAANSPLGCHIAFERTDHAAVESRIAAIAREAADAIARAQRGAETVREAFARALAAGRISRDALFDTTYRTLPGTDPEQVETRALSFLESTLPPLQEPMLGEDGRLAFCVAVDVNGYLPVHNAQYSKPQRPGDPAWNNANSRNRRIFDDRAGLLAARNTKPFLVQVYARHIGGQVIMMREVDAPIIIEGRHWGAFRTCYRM
The assay can be described thus: ITC ([…] protein titrated with […] c-di-GMP); also protein thermal shift assay.

In general, Kd refers to the concentration at which binding is half-saturated. As for `Nc1nc2c(ncn2[C@@H]2O[C@@H]3CO[P@](=O)(O)O[C@H]4[C@@H](O)[C@H](n5cnc6c(=O)[nH]c(N)nc65)O[C@@H]4CO[P@](=O)(O)O[C@H]3[C@H]2O)c(=O)[nH]1` [c-di-GMP], the Kd came out at 14.9 ± 1.6 µM.
